{
  "source": "patent US20070161568A1",
  "about": "“Use of GLP-1 peptides” (Novo Nordisk A/S, priority 1996, published 2007)",
  "key": {"[1]": {"tested_on": "food intake in normal human subjects", "assay": "iv infusion of GLP-1(7-36)amide in a double-blind crossover trial: visual analogue scale ratings and ad libitum lunch energy intake", "type": "in vivo", "source_text": "The effect of GLP-1(7-36)amide on food intake in normal human subjects.\nHealthy human volunteers (20 subjects) were in a double-blind crossover trial given an iv infusion of 50 pmol/(kg·h) of GLP-1(7-36)amide or saline on separate, but otherwise identical experimental days. The infusion was started at 9.00 and lasted until 15.00. At 9.45 the subjects received a fixed amount of breakfast and at 14.15 they had lunch of an identical composition but ad libitum. The subjects rated their feeling of satiety, hunger, fullness and appetite on a visual analogue scale every half hour. The results are given below: • Satiety: GLP-1>Saline, p=0.006 • Hunger: GLP-1<Saline, p=0.007 • Fullness: GLP-1>Saline, p=0.010 • Appetite: GLP-1<Saline, p=0.007\nThe energy intake of each subjects was measured. The intakes were 3.9 MJ with GLP-1 and 4.3 MJ with Saline resulting in a p-value of 0.009."}, "[2]": {"tested_on": "appetite suppression in mice", "assay": "appetite suppression in mice: sucrose consumption, tested immediately after ip injection (Example 2)", "type": "in vivo", "conditions": "85 micrograms (equivalent to 3.4 mg/kg), 10 minute period, p-value 0.002", "protocol": "Test method for measuring appetite suppression in mice.\nMice were deprived of their normal food for two days and given free access to a 20% sucrose solution on the first day of food deprivation. After the two day food deprivation period, the mice were injected intraperitoneally with 0.5 ml of a solution containing the test substance. Immediately after injection, individual mice were placed in one of eight 15 cm square test boxes with a stainless steel grid floor and a glass drinking tube which projected into the box. […] Consumption of the sucrose solution was measured over a 10 minute period by electronically recording the total amount of contact with the sucrose solution during the test session. The degree of appetite suppression produced by a given test substance was determined by statistical comparison of the mean duration of sucrose consumption by control (vehicle treated) mice with that of mice treated with a test substance. The degree of appetite suppression in a treated group of mice was expressed as percent difference between the test and control group's response duration means. […]"}, "[3]": {"tested_on": "food intake in rats", "conditions": "cited from earlier work"}, "[4]": {"conditions": "healthy human volunteers, iv infusion 50 pmol/(kg·h) vs saline, p=0.007"}},
  "note": "Where two headings read alike, the source gives them in different places. No end group written: not given here.",
  "data": [
    {"substance": "GLP-1(7-36)amide (HAEGTFTSDVSSYLEGQAAKEFIAWLVKGR-NH2; UniProt P01275 98-127, looked up) [fragment 7-36 of GLP-1 as C-terminal amide]", "values": [
      {"measurement": "Satiety (visual analogue scale)", "setting": "[1]; healthy human volunteers, iv infusion 50 pmol/(kg·h) vs saline, rated every half hour, p=0.006", "value": "GLP-1>Saline"},
      {"measurement": "Appetite (visual analogue scale)", "setting": "[1]; [4]", "value": "GLP-1<Saline"},
      {"measurement": "Hunger (visual analogue scale)", "setting": "[1]; [4]", "value": "GLP-1<Saline"},
      {"measurement": "Fullness (visual analogue scale)", "setting": "[1]; healthy human volunteers, iv infusion 50 pmol/(kg·h) vs saline, p=0.010", "value": "GLP-1>Saline"},
      {"measurement": "suppression of sucrose consumption", "setting": "[2]", "value": 60, "unit": "%"}
    ]},
    {"substance": "GLP-1(1-36)amide (HDEFERHAEGTFTSDVSSYLEGQAAKEFIAWLVKGR-NH2; UniProt P01275 92-127, looked up, fragment) [GLP-1 fragment 1-36 as C-terminal amide, literature result]", "values": [
      {"measurement": "effect on food intake", "setting": "[3]; route not stated, Tang-Christensen et al.", "value": "no effect"}
    ]},
    {"substance": "GLP-1: proglucagon fragment 72-108, commonly referred to as GLP-1(1-37) or just GLP-1; in b61 it means GLP-1(7-36)amide", "values": [
      {"measurement": "energy intake", "setting": "[1]; ad libitum lunch, iv infusion 50 pmol/(kg·h), saline 4.3 MJ, p-value 0.009", "value": 3.9, "unit": "mJ"},
      {"measurement": "effect on food intake", "setting": "[3]; administered intracerebroventricularly, Tang-Christensen et al.", "value": "profound effect"},
      {"measurement": "effect on food intake", "setting": "[3]; administered intracerebroventricularly, Turton et al.", "value": "profound effect"},
      {"measurement": "effect on food intake", "setting": "[3]; peripheral administration, Turton et al.", "value": "inactive"},
      {"measurement": "effect on food intake", "setting": "[3]; peripherally administered, Tang-Christensen et al.", "value": "no significant effect"}
    ]}
  ]
}
